Results published in ChEMBL document CHEMBL5728227, “Substituted pyrazole derivatives as selective CDK12/13 inhibitors” (2021).
pIC50: −log10 of the molar value.

Target: Cyclin-dependent kinase 7 (Homo sapiens, UniProt P50613)
Assay: Biochemical Assay for CDK7: The inhibitory activity of the test compounds was assessed by the LANCE TR-FRET assay, which detects the ATP-dependent phosphorylation of an ULight-myelin basic protein (MBP) substrate peptide (100 nM) by CDK7 (10 nM). Briefly, the enzyme reaction was run in reaction buffer (20 mM HEPES (pH 7.5), 10 mM MgCl2, 0.01% Triton x, 100 μM Sodium Orthovanadate, 1 mM DTT). The assay was performed in 384-well plate. The end concentration of the ATP substrate was 1 mM/100 μM, and that of the ULight-MBP substrate peptide was 100 nM, and of CDK7 was 10 nM. Pre-incubation of the compound and enzyme was performed for 60 min at room temperature. After 60 min incubation at room temperature, the reaction was terminated by the addition of 40 mM EDTA and 1 nM Eu-labeled anti-phospho-MBP-binding protein antibody in the buffer. Time-resolved fluorescence (excitation, 320 nm; emission donor, 615 nm; emission acceptor, 665 nm) was monitored by using 2030 multilabel reader Victor5 (PerkinElmer). The readout was calculated as (acceptor counts/donor counts)×1000. The IC50 values were derived by fitting a sigmoidal dose-response curve to a plot of assay readout over inhibitor concentration. All fits were computed with the program Prism 5.03 (Graph Pad Software, San Diego, Calif.).

Sequence of Cyclin-dependent kinase 7 (P50613 whole entry): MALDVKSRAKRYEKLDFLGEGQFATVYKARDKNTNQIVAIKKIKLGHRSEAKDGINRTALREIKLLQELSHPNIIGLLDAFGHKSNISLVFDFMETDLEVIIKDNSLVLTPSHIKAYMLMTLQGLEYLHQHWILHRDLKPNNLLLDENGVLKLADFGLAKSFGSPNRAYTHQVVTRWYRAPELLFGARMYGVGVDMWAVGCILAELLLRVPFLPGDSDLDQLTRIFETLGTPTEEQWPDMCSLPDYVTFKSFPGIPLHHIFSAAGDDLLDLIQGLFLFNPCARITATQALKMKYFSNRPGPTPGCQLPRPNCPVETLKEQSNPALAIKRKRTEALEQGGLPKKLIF

pIC50: 5.76
SMILES: C=CC(=O)N1CCC=C(c2ccc(CC(=O)Nc3cc(C4CC4)[nH]n3)cn2)C1
